Laboratory results reported in PubChem BioAssay AID720570 (Broad Institute, 2013).
Activity calls are given as the source filed them.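 How the source made its calls: active means cell-killing curve crosses a set limit at a concentration no more than twice the top valid dose; inconclusive means flat curve with a 30 to 70% loss, or a poor fit; inactive means signal rising instead of falling, and the rest.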

Columns and labels:
[1] = TC71 Ewing sarcoma cell killing, confirmation, luminescence, cherry-picked samples, retest (AID 720570); details: TC71 Ewing sarcoma viability, CellTiter-Glo ATP, 72 h; at 26 µM (top of the series)
[2] = tested on: TC71 Ewing sarcoma viability, CellTiter-Glo ATP, 72 h; test: as above

Compound	activity change, negative = cytotoxicity [1]	AC35 [2] [µM]
COC(=O)C[C@H]1CC[C@@H](NC(=O)Nc2ccc(C(F)(F)F)cc2)[C@H](CO)O1	-8.02% (inactive)	–
COC(=O)C[C@@H]1CC[C@@H]2[C@H](COc3ccc(NC(=O)Nc4ccc(C#N)cc4)cc3C(=O)N2C)O1	4.12% (inactive)	–
CCOc1cc2[nH]c(=S)n(Cc3ccc(C(=O)NCCN(CC)CC)cc3)c(=O)c2cc1OCC	11.4% (inactive)	–
COc1ccc(S(=O)(=O)Nc2ccc3c(c2)C(=O)N([C@H](C)CO)C[C@@H](C)[C@@H](CN(C)CC2CCCCC2)OCCCC[C@H](C)O3)cc1	-1.56% (inactive)	–
Cc1ccc(C(=O)O/N=C(\N)c2ccccn2)cc1	-10% (inactive)	–
CC(C)NC(=O)N(C)C[C@@H]1Oc2cc(C#Cc3ccc(F)cc3)ccc2S(=O)(=O)N([C@H](C)CO)C[C@H]1C	4.97% (inactive)	–
COC(=O)c1cccc(NC(=O)NC(=O)c2ccc(Cl)cc2)c1	-16.8% (inactive)	–
C[C@@H]1CN([C@@H](C)CO)S(=O)(=O)c2ccc(C#CCN(C)C)cc2O[C@@H]1CN(C)Cc1ccncc1	-4.92% (inactive)	–
COc1cc(OC)cc(-c2cc3nc(C)c(CCC(=O)NCc4ccccc4)c(C)n3n2)c1	9.58% (inactive)	–
Cc1ccccc1N=Nc1c(O)n(C)c2ccccc12	3.17% (inactive)	–
CCOc1ccc(N=C2C(=O)Nc3ccc(C)c(Br)c32)cc1	8.53% (inactive)	–
C[C@@H]1CN([C@H](C)CO)S(=O)(=O)c2ccc(C#CC3CC3)cc2O[C@@H]1CN(C)Cc1ccccc1F	-4.35% (inactive)	–
Cc1ccsc1/C=N/Nc1ccc(C(=O)O)cc1	-11.1% (inactive)	–
CC(C)(C)c1ccc(/C=N/Nc2ccc(C(=O)O)cc2)cc1	1.96% (inactive)	–
CC(C)(C)C(=O)Nc1ccc(N=Nc2ccccc2)cc1	-0.79% (inactive)	–
COC(=O)C[C@@H]1CC[C@@H]2[C@H](COc3ccc(NC(=O)Nc4cccc(Cl)c4)cc3C(=O)N2C)O1	-5.82% (inactive)	–
CC(C)CN(C(=O)CN1CCOCC1)c1c(N)n(CC(C)C)c(=O)[nH]c1=O	-2.81% (inactive)	–
O=C(CNC(c1ccccc1)c1ccccc1)Nc1ccccc1-c1ccccc1	11.2% (inactive)	–
COc1ccc(Nc2oc(COc3ccccc3OC)nc2C#N)cc1	0.131% (inactive)	–
O=C(CCCN1C(=O)S/C(=C\c2ccccc2)C1=O)NNC(=O)c1ccccc1O	5.39% (inactive)	–
O=C(NC1CCCC1)C(c1ccccc1)n1c(CSCCOc2ccccc2)nc2ccccc21 (stereo not given)	3.49% (inactive)	–
CC(=O)c1ccc(N(C(=O)Cn2nnc3ccccc32)C(C(=O)NCc2ccccc2)c2ccccn2)cc1 (stereo not given)	9.64% (inactive)	–

Compound	activity change, negative = cytotoxicity [1]	AC35 [2] [µM]
C[C@@H]1CN([C@@H](C)CO)S(=O)(=O)c2ccc(C#Cc3ccncc3)cc2O[C@H]1CN(C)S(=O)(=O)c1ccccc1	-2.93% (inactive)	–
CN1c2ccc(-c3ccc(C#N)cc3)cc2[C@H]2[C@H](CCN2S(=O)(=O)c2cccc(F)c2)[C@@H]1CO	–	5.53
COc1cccc(Sc2ccccc2/C=N/NC(N)=O)c1	–	3.12
CC(C)(C)c1ccc(Oc2ccc(NC(=O)c3ccccc3C(=O)O)cn2)cc1	–	10.3
Cc1nc(N)nc(N)c1CCCc1ccc(Cl)c(Cl)c1	–	1.81
BrC(=C\c1ccccc1)/C=N/n1cnnc1	–	14.5
O=C(O)c1ccccc1C(=O)Nc1ccc(Oc2ccc3ccccc3c2)cc1	–	9.26
CCN1C/C(=C/c2ccc(N3CCOCC3)cc2)C(=O)/C(=C/c2ccc(N3CCOCC3)cc2)C1	–	5.92
C[C@@H]1CN([C@@H](C)CO)C(=O)c2cccc(NS(=O)(=O)c3ccc(Cl)cc3)c2O[C@@H]1CN(C)Cc1ccc(C(=O)Nc2ccccc2N)cc1	–	9.9
Cc1ccccc1S(=O)(=O)N1CC[C@@H]2[C@@H](CO)Nc3ccc(-c4ccc(C#N)cc4)cc3[C@@H]21	–	4.8
Oc1c(Cl)cc(Cl)c2cccnc12	–	20.7
COc1cc2oc3cc(C#Cc4ccc(N)cc4)ccc3c(=O)c2cc1OC	–	6.86
CCc1ccc(Cn2ncc3c(C(=O)O)cc(C)nc32)cc1	–	20.8
Cc1ccc(S(=O)(=O)Nc2ccc3c(c2)C(=O)N([C@@H](C)CO)C[C@@H](C)[C@@H](CN(C)Cc2ccc(C(=O)Nc4ccccc4N)cc2)O3)cc1	–	11.5
CC(C)=CCC/C(C)=C/CN1C(=O)N(c2ccc(F)cc2)[C@H]2C[C@@H](c3ccccc3)[C@@H](C)[C@@H](C(=O)N3CCOCC3)C[C@H]21	–	4.4
COc1ccc(S(=O)(=O)Nc2cccc3c2O[C@H](CN(C)Cc2ccc(C(=O)Nc4ccccc4N)cc2)[C@H](C)CN([C@@H](C)CO)C3=O)cc1	–	5.62
COc1ccc(OC)c(-c2nnc3n2N=C(c2ccc(OC)c(OC4CCCC4)c2)CS3)c1	–	3.81
N#CC1=C(N)Oc2cc(N)ccc2C1c1cccc(F)c1 (stereo not given)	–	4.98
Oc1c(C(c2ccc(Cl)cc2)N2CCCC2)cc(Cl)c2cccnc12 (stereo not given)	–	6.32
O=C(N/N=C/c1cccs1)c1n[nH]c2c1CCCC2	–	17.2
CN1C(=O)c2cc(NC(=O)c3ccc(Cl)cc3)ccc2OC[C@@H]2O[C@@H](CC(=O)NCc3cccc(F)c3)CC[C@H]21	–	5.21
O=C(NC1CCCC1)N1CCCCN2[C@@H](CO)[C@@H](c3ccc(/C=C/c4ccccc4)cc3)[C@@H]2C1	–	13.6

Compound	activity change, negative = cytotoxicity [1]	AC35 [2] [µM]
O=C(Sc1cccc2cccnc12)c1ccccc1Br	–	10.5
Nc1nc(N)c2c(ccc3nccc32)[nH]1	–	3.24
COC(=O)C[C@H]1CC[C@@H]2[C@H](COc3ccc(NC(=O)Nc4cccc(Cl)c4)cc3C(=O)N2C)O1	–	15
COc1ccc(S(=O)(=O)N2CC[C@@H]3[C@H](CO)Nc4ccc(-c5ccc(C#N)cc5)cc4[C@@H]32)cc1	–	4.88
Nc1cc2c(cc1Br)[nH]c(=O)c1ccccc12	–	23.3
C[C@H]1CN([C@@H](C)CO)C(=O)c2cc(NC(=O)C3CCCCC3)ccc2O[C@H]1CN(C)Cc1ccc(C(=O)Nc2ccccc2N)cc1	–	11.1
C[C@@H]1CN([C@H](C)CO)C(=O)Cc2cc(NC(=O)CCCCCC(=O)Nc3ccccc3N)ccc2O[C@@H]1CN(C)CC1CCCCC1	–	16.9
Nc1sc(-c2ccccc2)cc1-c1n[nH]c(=S)n1C1CCCCC1	–	4.99
Cc1ccc(S(=O)(=O)Nc2ccc3c(c2)C(=O)N([C@@H](C)CO)C[C@H](C)[C@@H](CN(C)Cc2ccc(C(F)(F)F)cc2)OCCCC[C@@H](C)O3)cc1	–	11.8
Cc1cc(C)c2sc(NNC(=O)c3ccc(S(=O)(=O)N4CCc5ccccc5C4)cc3)nc2c1	–	2.4
C[C@@H]1CN([C@@H](C)CO)C(=O)Cc2cc(N(C)C)ccc2O[C@@H]1CN(C)Cc1ccccc1	–	17.7
C[C@]12CCC3C(CCC4=CC(O)CC[C@@]43/C=N/O)C1(O)CCC2C1=CC(=O)OC1 (stereo not given in full)	–	1.82
COc1ccc(C(=O)NCCNc2nc3cc(C)cc(C)c3cc2C#N)c(OC)c1	–	15.9
C[C@@H]1O[C@@H](O[C@@H]2C=C3CC[C@@H]4C(CC[C@]5(C)[C@@H](c6ccc(=O)oc6)CC[C@]45O)[C@@]3(C)CC2)[C@H](O)[C@H](O)[C@H]1O (stereo not given in full)	–	0.0374
COC(=O)C1=C(C)N(Cc2cccc(C(F)(F)F)c2)C(=NCc2ccc(OC)cc2)NC1c1cccc(F)c1 (stereo not given)	–	10.9
C/C(=C\c1ccccc1)C(=O)N1CCC=CC1=O	–	13.7
COc1cc(C(=O)N2CCC(N3CCN(C)CC3)CC2)ccc1Nc1ncc2c(n1)N(C)c1ccccc1C(=O)N2C	–	11.4
C[C@H]1CN([C@@H](C)CO)C(=O)c2cc(N(C)C)ccc2O[C@@H]1CN(C)Cc1ccc(C(=O)Nc2ccccc2N)cc1	–	17.7
COc1ccc(-c2cn(-c3ccc(OC)cc3)c3[n+]2-c2ccccc2CC3)cc1	–	14.4
COC(=O)C[C@@H]1CC[C@@H]2[C@H](COc3ccc(NC(=O)c4cc(C)on4)cc3C(=O)N2C)O1	–	12
Cc1nc(N)nc(N)c1-c1ccc(Cl)c(Cl)c1	–	0.714
Nc1nc(N)c2cc(Sc3ccc4ccccc4c3)ccc2n1	–	1.83

Compound	activity change, negative = cytotoxicity [1]	AC35 [2] [µM]
CCc1nc(N)nc(N)c1-c1ccc(Cl)c(N=[N+]=[N-])c1	–	3.56
Nc1ccc(Cn2ccc3c4c(N)nc(N)nc4ccc32)cc1	–	0.0342
C[C@H]1CN([C@@H](C)CO)C(=O)Cc2cc(NC(=O)CCCCCC(=O)Nc3ccccc3N)ccc2O[C@H]1CN(C)Cc1ccc(Oc2ccccc2)cc1	–	11.5
CN1c2ccc(-c3ccc(C#N)cc3)cc2[C@H]2[C@H](CCN2S(=O)(=O)c2cccc(F)c2)[C@H]1CO	–	3.77
COc1ccc(C2c3cc4c(cc3OC(NNC(N)=O)C2C)OCO4)cc1 (stereo not given)	–	12
C[C@H]1CN([C@@H](C)CO)C(=O)c2cc(N(C)C)ccc2O[C@H]1CN(C)Cc1ccc(C(=O)Nc2ccccc2N)cc1	–	12.1
CN(C)c1ccc2c(c1)[C@@H]1C[C@@H](CC(=O)NCc3ccc(Oc4ccccc4)cc3)O[C@H](CO)[C@@H]1O2	–	14.3
Cc1ccc(S(=O)(=O)Nc2ccc3c(c2)C(=O)N([C@H](C)CO)C[C@@H](C)[C@@H](CN(C)Cc2ccc(C(=O)Nc4ccccc4N)cc2)O3)cc1	–	11
COC(=O)C1=C(C)N(Cc2ccccc2C(F)(F)F)C(=NCc2ccc(OC)cc2)NC1c1ccc(C(F)(F)F)cc1 (stereo not given)	–	13.5
Cc1ccc(/C=N/Nc2ccnc3cc(Cl)ccc23)c(C)c1	–	11.8
CCc1ccc(S(=O)(=O)c2ccc(-n3nc(C)cc3N)cc2)cc1	–	19.4
N#CC(C#N)=C1C=CC=CN1/C(=C\c1ccco1)C(=O)c1ccc(Cl)cc1	–	8.19
O=C1c2ccccc2C(=O)N1CCCCNc1ccccc1	–	5.25
COc1cccc(-c2cccc(-c3nc(C(=O)NCC(F)(F)F)cc4c3[C@H](CCO)N([S@@](=O)C(C)(C)C)C4)c2)c1	–	5.61
O=c1ccc2ccccc2c2ccccc12	–	10.5
CCc1ccc(/C=C2\SC(=S)N(CCCC(=O)NCCCN3CCOCC3)C2=O)cc1	–	22.6
CC(C)Oc1ccc(Br)cc1C(=O)N/N=C/c1c[nH]c2ccccc12	–	20.1
C=C1C(=O)O[C@@H]2[C@H]1[C@@H](OC(=O)/C(C)=C/C)C/C(C)=C\C(=O)/C=C(\C)[C@@H]2O	–	9.79
Cc1cc(C)cc(C(=O)NC(=S)Nc2ccc(Cc3ccncc3)cc2)c1	–	7.66
